In patent US7579006B2, “Method of treating immune pathologies with low dose estrogen” (Oregon Health and Science University, priority 2000, dated 2009):
Values joined by “and” are separate entries in the source; they are usually repeats but may differ in a detail not shown here. Identical values can stand only once.

Legend:
[1] = test system: CNS mononuclear cells; experiment: Intracellular cytokine staining of CNS mononuclear cells; format: in vivo, mice; settings: 2.5 mg pellet
Source text: CNS mononuclear cells were isolated from perfused brain and spinal cord by percol gradient centrifugation as described in Bebo et al., J. Neurosci. Res. 52:420-429 (1998). The cells were stimulated with MOG-35-55 peptide for 24 hrs, the last 5 hrs in the presence of Brefeldin A. The cells were then stained with anti-CD4 cychrome labeled antibodies prior to fixation and permeabilization. The cells were subsequently stained with Vβ8.1/8.2 TCR-FITC and the indicated cytokine specific antibody coupled to PE and analyzed by three-color flow cytometry. For each experiment the cells were stained with isotype control antibodies to establish background staining and to set the quadrants prior to calculating the percent positive cells.
Intracellular staining of CNS mononuclear cells with anti-cytokine antibodies was also performed. Mononuclear cells were recovered from the brain and spinal cords of perfused mice at the peak of clinical disease. […] These cells were stained with anti-CD4 cychrome labeled antibodies and the frequency of cytokine producing Vβ8.2+ helper T cells was measured by staining with anti-Vβ8.2-FITC and PE-labeled cytokine specific antibodies.

[2] = test system: spinal cord mononuclear cells; experiment: Mononuclear cell infiltration into spinal cords of Tg females with EAE; format: in vivo, mice; settings: 0.36 mg pellet
Method: Induction of active EAE. EAE was induced, and disease assessed, essentially as described in Example II. Disease onset was defined as the first day of clinical signs, peak—acute phase of EAE—as maximum severity of clinical signs (day 16-17 after immunization with encephalitogenic peptide) and recovery as day 28 post-immunization, when clinical severity of EAE was diminished. The cumulative disease index (CDI) was determined for each mouse by summing the daily clinical scores. Mice selected from control, ovariectomized, and 17β-estradiol treated groups were sacrificed and spinal cords were isolated by insufflation and frozen at −70 C or mononuclear cells were isolated over a Percoll step gradient and counted as described in Offner et al., J. Immunol. 161:2178-2186 (1998). Lymph nodes (LN) or spleens (SPL) were removed surgically and passed through a wire mesh screen to obtain a single-cell suspension. Frozen spinal cords were subsequently thawed and evaluated for expression of chemokines, chemokine receptors and cytokines by the RNase protection assay.

[3] = test system: T cells from naïve BV8S2 transgenic female mice; experiment: In vitro effect of 17β-estradiol on T cells from naïve BV8S2 transgenic female mice; format: cell-based
Method: Proliferation assay. Proliferation responses of splenic T cells were determined essentially as described in Example II, except that antigen was used at an optimal concentration of 50 μg/ml.
Measurement of cytokine secretion. Lymph nodes of naïve BV8S2 TCR transgenic females were suspended at 4×10^6 cells/ml in stimulation medium with antigen and with or without 2000 pg/ml of 17β-estradiol. Cell culture supernatants were recovered at 72 hours and frozen at −70 C until used. Measurement of cytokines was performed by ELISA essentially as described in Example II.
To evaluate 17β-estradiol effects on antigen specific T cells, splenocytes from naïve BV8S2 single transgenic female mice were stimulated with MBP-Ac1-11 peptide or BV8S2 protein in the presence or absence of a range of 17β-estradiol concentrations.

[4] = test system: Vβ8.2+/CD4+ T CELLS; experiment: Flow cytometry of adhesion and activation antigens on LN Vβ8.2+/CD4+ T cells; format: in vivo, mice; settings: E2 treated
Method: The regulation of cell adhesion molecules is another possible mechanism by which estrogen treatment controls the migration of inflammatory cells into the CNS. The expression of cell surface adhesion and activation/memory antigens was determined by staining with fluorochrome-labeled antibodies and flow cytometry. No significant differences in the expression of VLA-4, CD44, or CD62L were detected between LN cells from E2 versus control mice with EAE (Table 18). Furthermore, no differences in activation markers (CD69, CD25, FASL, CD40L, CD28) were seen.

[5] = test system: IL-4 KO mice; experiment: EAE induced with MOG 35-55 in IL-4 KO mice (clinical, histopathology); format: in vivo; settings: 2.5 mg pellet
Method: Estrogen treatment. Sixty-day release pellets containing 2.5 mg of 17β-estradiol (E2) or vehicle were implanted subcutaneously (s.c) in the scapular region behind the neck using a 12-gauge trochar as described by the manufacturer (Innovative Research of America, Sarasota, Fla.). The mice were implanted one week prior to immunization with MOG 35-55. The concentration of E2 expected in the serum is between 1,500-2,000 pg/ml, which is approximately 5 times less than the levels found during pregnancy.
Induction of EAE. C57BL/6 and cytokine deficient mice were inoculated s.c in the flanks with 0.2 ml of an emulsion containing 200 μg of MOG 35-55 in saline and an equal volume of complete Freund's Adjuvant (CFA) containing 400 μg of Mycobacterium tuberculosis H37RA (Difco Laboratories, Detroit, Mich.). Disease induction required i.v. administration of pertussis toxin on the day of immunization (25 ng/mouse) and 2 days later (67 ng/mouse). The mice were assessed daily for clinical signs of EAE according to the 7 point scale described in Example I.
Histopathology. Histopathologic assessment of spinal column section was performed essentially as described in Example I, except that sections were stained with either luxol fast blue-periodic acid schiff-hematoxylin or silver nitrate prior to analysis.
Statistical analysis. Significant differences in incidence and mortality between untreated and E2 treated mice were assessed by Chi-square analysis. Difference in onset was determined using the two-tailed Student t test. Differences in peak score and cumulative disease index (CDI) were assessed by the Mann-Whitney test. Statistical significance of the frequency of cytokine secreting cells was analyzed using Student's t test for comparisons of two means. Differences in the expression of chemokine and cytokine mRNA were also determined using the Student t test. Values of p<0.05 were considered significant.

[6] = test system: ovariectomized Tg female mice; experiment: EAE in ovariectomized BV8S2 Tg female mice; format: in vivo
[7] = single experiments (Exp #1-#2), listed as E2
[8] = single experiments (Exp #1-#3), listed as E2
[9] = 0.36 mg pellet, OVX Tg females (Example III)

SMILES: C[C@]12CC[C@@H]3c4ccc(O)cc4CC[C@H]3[C@@H]1CC[C@@H]2O [17β-estradiol]
- frequency and staining intensity of TNF-α and IFN-γ producing CD4+ T cells in the CNS ([1]; p<0.0001): dramatic reduction
- total number of mononuclear cells recovered from perfused CNS, untreated relative to E2 treated mice ([1]; peak of clinical disease): 4-5 times higher
- pro-inflammatory cytokine producing CD4+ Vβ8.2+ T cells in CNS ([1]; untreated 29,000 cells/mouse): 390 cells/mouse
- Mean clinical score at time of cord removal [2]: 1.3
- Number of cells/cord [2]: 10000 cells/cord
- prevention of infiltration of mononuclear cells into spinal cords [2]: approximately 60%
- IL-12 or IL-10 secretion ([3]; in vitro, 2,000 pg/ml, MBP-Ac1-11 stimulated LN cells): no effects
- reduction of secreted IFN-γ protein ([3]; in vitro, 2,000 pg/ml, MBP-Ac1-11 stimulated LN cells, p<0.005): 50%
- native T cell proliferation response to MBP-Ac1-11 peptide ([3]; in vitro, 15-2,000 pg/ml): no significant effect
- native proliferation response to BV8S2 protein ([3]; in vitro, 15-2,000 pg/ml): modest enhancing effect
- IFN-γ or other cytokine secretion ([3]; in vitro, lower doses (150-400 pg/ml)): no inhibitory effects
- CD28, % of Vβ8.2+/CD4+ T CELLS ([4]; Exp #1): 4.5%
- CD40L, % of Vβ8.2+/CD4+ T CELLS ([4]; Exp #1): 0%
- CD62lo, % of Vβ8.2+/CD4+ T CELLS ([4]; Exp #1): 47.3%
- CD25, % of Vβ8.2+/CD4+ T CELLS, mean ([4]; mean of experiments): 7.4 ± 4.3%
- CD44hi, % of Vβ8.2+/CD4+ T CELLS, mean ([4]; mean of experiments): 55.8 ± 13.8%
- CD69, % of Vβ8.2+/CD4+ T CELLS, mean ([4]; mean of experiments): 21.6 ± 5.8%
- FASL, % of Vβ8.2+/CD4+ T CELLS, mean ([4]; mean of experiments): 1.6 ± 2.1%
- VLA-4, % of Vβ8.2+/CD4+ T CELLS, mean ([4]; mean of experiments): 57.5 ± 7.4%
- CD25, % of Vβ8.2+/CD4+ T CELLS [4, 7]: 4.3% and 10.4%
- CD69, % of Vβ8.2+/CD4+ T CELLS [4, 7]: 17.5% and 25.7%
- FASL, % of Vβ8.2+/CD4+ T CELLS [4, 7]: 0.1% and 3.1%
- CD44hi, % of Vβ8.2+/CD4+ T CELLS [4, 8]: 68.8% and 41.2% and 57.3%
- VLA-4, % of Vβ8.2+/CD4+ T CELLS [4, 8]: 64.2% and 58.7% and 49.6%
- CDI ([5]; IL-4 KO): 18.4 ± 22.2
- Incidence ([5]; IL-4 KO): 8/11
- Mortality ([5]; IL-4 KO): 0/11
- Onset ([5]; IL-4 KO): 20.6 ± 4.9
- Peak Score ([5]; IL-4 KO): 4.4 ± 1.0
- Inflammatory foci/section ([5]; IL-4KO, spinal cord): 0.0 ± 0.0 Foci/Section
- CDI [6, 9]: 40.0 ± 8.5
- Incidence [6, 9]: 8/11
- Onset [6, 9]: 16.5 ± 2.3
- Peak [6, 9]: 2.6 ± 0.6
- Average CDI (10-30) ([6]; Ovx Tg females): 40.0 ± 22.1^B
- Incidence ([6]; Ovx Tg females): 11/15
- Mortality ([6]; Ovx Tg females): 4/15
- Onset ([6]; Ovx Tg females): 13.6 ± 1.5
- Peak ([6]; Ovx Tg females): 3.5 ± 0.8
